These results are taken from US12404244B2, “Pan-KIT kinase inhibitor having quinoline structure and application thereof” (Tarapeutics Science Inc., priority 2018, dated 2025).

What all share (format): in vivo
Holding throughout (conditions): oral, every day

The test system of data set [1] is TEL-cKIT/T670I-BaF3 mouse tumor model. Description: Tumor-grafted mouse model established with TEL-cKIT/T670I-BaF3 cells. The procedure:
(§1) In this example Compound 1 and Compound 2 were respectively tested in TEL-cKIT/T670I-BaF3, TEL-cKIT/Y823D-BaF3, TEL-cKIT/D820G-BaF3 and GIST-T1-T670I mouse models.
(§2) Experimental protocols were as follows. • (1) Bal b/c female mice aged 4-6 weeks were purchased from Beijing Weitong Lihua Laboratory Animal Co., Ltd., and the mice were raised in an SPF laboratory. The drinking water and padding were sterilized by autoclaving. All operations on mice were conducted under aseptic conditions. • (2) About 5×10^6 TEL-cKIT/T670I-BaF3, TEL-cKIT/Y823D-BaF3, TEL-cKIT/D820G-BaF3 or GIST-T1-T670I cells were respectively injected subcutaneously onto the left back of all mice on Day 0. • (3) From Day 6, for the TEL-cKIT/T670I-BaF3 mouse model the corresponding mice were administrated orally every day with methylcellulose (HKI) as the vehicle (5 mice); with Compound 1 and Compound 2 at a dosage of 10 mg/kg, 20 mg/kg, 40 mg/kg, 100 mg/kg mouse weight (5 mice in each group); and with Sunitnib (purchased from MedChemExpress, China) at a dosage of 40 mg/kg mouse weight (5 mice). From day 6, for the TEL-cKIT/Y823D-BaF3 and TEL-cKIT/D820G-BaF3 mouse models the corresponding mice were administrated orally every day with methylcellulose (HKI) as the vehicle (5 mice); with Compound 1 and Compound 2 at a dosage of 40 mg/kg, 80 mg/kg mouse weight (5 mice in each group); and with Sunitnib (purchased from MedChemExpress, China) at a dosage of 40 mg/kg mouse weight (5 mice). From day 15, for the GIST-T1-T670I mouse model the corresponding mice were administrated orally every day with methylcellulose (HKI) as the vehicle (5 mice); with Compound 1 and Compound 2 at a dosage of 20 mg/kg, 40 mg/kg, 80 mg/kg mouse weight (5 mice in each group); and with Sunitnib at a dosage of 40 mg/kg mouse weight (5 mice). • (4) From day 6 (TEL-cKIT/T670I-BaF3, TEL-cKIT/Y823D-BaF3, TEL-cKIT/D820G-BaF3 mouse model) and From day 15 (GIST-T1-T670I mouse model), respectively, the length/width of the subcutaneous tumor were measured with a vernier caliper every day and the body weight of the mouse was recorded every day so as to determine the effects of Compound 1 and Compound 2 on the body weight and tumor size of the mice, respectively. • (5) The mice were sacrificed on Day 11 after administration for the TEL-cKIT/T670I-BaF3 mouse model, on Day 9 after administration for the TEL-cKIT/Y823D-BaF3 and TEL-cKIT/D820G-BaF3 mouse models, and on Day 28 after administration for the GIST-T1-T670I mouse model. The subcutaneous tumors were taken out, and the tumors were weighed and compared. • (6) The growth trend of subcutaneous tumors was calculated and the tumor size was calculated according to: length×width×width/2 mm^3.

Data set [2] concerns TEL-cKIT/Y823D-BaF3 mouse tumor model. Description: Tumor-grafted mouse model established with TEL-cKIT/Y823D-BaF3 cells. On the procedure:
as §1, §2

Data set [3] deals with TEL-cKIT/D820G-BaF3 mouse tumor model. As to the kind of experiment: Tumor-grafted mouse model established with TEL-cKIT/D820G-BaF3 cells. On the procedure:
as §1, §2

With `COc1cc2nccc(Oc3ccc(NC(=O)Cc4ccc(Cl)c(C(F)(F)F)c4)cc3)c2cc1OC` [Example 2, N-(4-((6,7-dimethoxyquinolin-4-yl)oxy)phenyl)-2-(4-chloro-3-(trifluoromethyl)phenyl)-acetamide], the “inhibitory effects against tumor in mice” value in data set [1] (40 mg/kg), in data set [2] (40 mg/kg) and in data set [3] (40 mg/kg) was “excellent inhibitory effects against tumor in mice” in each case. Moreover, the tumor inhibition rate in data set [1] (40 mg/kg), in data set [2] (40 mg/kg) and in data set [3] (40 mg/kg) was no less than 80% throughout. In addition, the “influence on mice weight” value in data set [1], in data set [2] and in data set [3] was “without significant influence on mice weight” throughout.
Turning to `COc1cc2nccc(Oc3ccc(NC(=O)Cc4ccc(C)c(C(F)(F)F)c4)cc3)c2cc1OC` [Example 1, N-(4-((6,7-dimethoxyquinolin-4-yl)oxy)phenyl)-2-(4-methyl-3-(trifluoromethyl)phenyl)acetamide], the “inhibitory effects against tumor in mice” value in data set [1] (40 mg/kg), in data set [2] (40 mg/kg) and in data set [3] (40 mg/kg) was “excellent inhibitory effects against tumor in mice” each time. In addition, the “influence on mice weight” value in data set [1], in data set [2] and in data set [3] was “without significant influence on mice weight” in each case.
